From US9504702B2, “Methods of inhibition of protein fucosylation in vivo using fucose analogs” (Seattle Genetics, Inc., priority 2010, dated 2016)
“Also recorded” adds a separate entry of the source.

Tests used:
[1] = system: LP-1 cells (1,6-fucosylation on the antibody); test: Fucosylation status of LP-1-generated IgG by reducing PLRP-MS; format: cell-based, human; conditions: 100 μM, 5 days, in words
From the text: To further define the results of the AOL dot blot, samples of the IgGs produced by cells treated with the following fucose analogs (that gave moderate to strong decreases in the dot blot AOL signal) were isolated and examined by reducing PLRP-MS to verify the fucosylation status using the MW of the heavy chain: alkynyl fucose peracetate; 5-vinylfucose tetraaceate; 5-methylketofucose tetraacetate; 6-bromofucose tetraacetate; 6-fluorofucose tetraacetate; 5-ethylfucose tetraacetate; 5-epoxyfucose tetraacetate; 6′6-difluorofucose tetraacetate; 6-keto-6-ethyl fucose tetraacetate; and 2-fluorofucose peracetate.
40 mL samples of LP-1 cells (250,000 cells/mL) were treated with 100 μM of a fucose analog for 5 days as described above, and the IgGs were purified as described using protein A resin. The yields were estimated by UV spectroscopy assuming an extinction coefficient of 1.4 AU/(mg/mL). Seven of the ten compounds yielded enough IgG to perform the analysis (use of SGD-2067, SGD-1964, and SGD-2020 yielded <10 μg of IgG, likely due to toxicity of the analogs to the cells). The remaining IgGs were reduced with 10 mM DTT at 37° C. for 15 min and were separated on PLRP followed by MS analysis using a QTOF mass spectrometer. The resulting heavy chain peaks were examined and compared to the IgG generated by untreated cells.
The mass spectrometry signals were evaluated by comparing the peak height of the heavy chain versus heavy chain minus fucose and heavy chain minus fucose plus the mass of the fucose analog (which would arise if there was incorporation of the analog into the antibody carbohydrate).

[2] = system: LS174T colon adenocarcinoma; test: Xenograft of pre-treated LS174T cells (Example 7, Study 2); format: in vivo, female nude mice; conditions: 20 mM in drinking water
Experimental: To further evaluate the activity of these fucose analogs, further studies were performed in vivo using tumor cells that had been pre-treated by culturing in the presence of a fucose analog, or using untreated tumor cells. Tumor cells were implanted into 10 mice per group as follows. For the LS174T, PC-3, and Caki-1 cell lines, 5×10^5 cells in 25% Matrigel were implanted subcutaneously into female nude mice. For HL-60 and Ramos cell lines, 5×10^6 cells were implanted subcutaneously into female SCID mice. For mice implanted with untreated tumor cells, mice were provided regular drinking water. For mice implanted with tumor cells pre-treated with 2-fluorofucose (SGD-2083), the mice were provided drinking water supplemented with 20 mM 2-fluorofucose (SGD-2083). For mice implanted with tumor cells pre-treated with alkylnyl fucose (SGD-1887), the mice were provided with regular drinking water.
After 3 weeks of receiving 2-fluorofucose-containing drinking water, mice were returned to regular drinking water, except for mice with Caki-1 tumors. The latter mice were returned to regular drinking water for one week. After the week of receiving regular water, mice were randomized to two groups of 5 each to receive drinking water supplemented with 20 mM 2-fluorofucose or regular drinking water. Mice were sacrificed when tumors reached about 1000 mm^3.

[3] = system: E-selectin binding to neutrophils; test: E-selectin binding to neutrophils following oral dosing, flow cytometry; format: in vivo, Female Balb/c mice
Experimental: The effects of a fucose analog on leukocytosis and E-selectin binding were eamined in mice. Female Balb/c mice were given oral 2-fluorofucose (SGD-2083) in the drinking water or left untreated. Mice were bled prior to dosing and then weekly for three weeks to assess circulating cell numbers and their ability to bind E-selectin. In one study, 2-fluorofucose was formulated at 1 mM, 10 mM or 100 mM in the drinking water (n=3 per group). At day 14, mice were treated with TiterMAX® Classic adjuvant (Sigma) to stimulate polyclonal, antigen non-specific antibody production by B cells, and remained on the 2-fluorofucose-containing water through day 21. In a second study, mice were given oral 2-fluorofucose formulated at 10 mM and 100 mM in the drinking water for three weeks without any other treatments (n=6). On day 21, a pool of lymph nodes (axillary, brachial, superficial inguinal, and mesenteric) from each of three animals was assessed in addition to blood. Lymph nodes were homogenized into single cell suspensions, and total cell numbers were determined by counting on a hemcytometer, using Trypan Blue for dead cell exclusion. To determine total white cell numbers/μL blood, samples of blood from individual animals were counted on a hemacytometer, using Turk's solution (0.01% gentian violet in 3% acetic acid) to exclude red blood cells (RBCs). RBCs were eliminated from the remainder of the blood by osmotic lysis for flow cytometric analysis. Cells were incubated with anti-Gr-1-FITC antibodies (BD Biosciences) to identify neutrophils, and a recombinant E-selectin-human Fc fusion protein (R&D Systems). Cells were washed and then incubated with a PE-labeled goat anti-human IgG-Fc secondary antibody (Jackson Immunoresearch) to detect bound E-selectin. Samples were collected on a FACSCalibur flow cytometer and analyzed using CellQuest software. The percentage of Gr-1+ cells was determined and absolute number of neutrophils was calculated using the total white cell number from the hemacytometer count. […] The geometric mean of the E-selectin fluorescent signal was determined from the histogram.

[4] = system: P-selectin ligand on Ramos cells; test: Cell surface P-selectin ligand by FACS, P-selectin fusion protein, Ramos; format: cell-based, human
Experimental: 100 μM of each inhibitor was used under standard culture conditions for approximately 1-2 weeks with regular changes of culture medium including fresh inhibitor. After the incubation period, the cells were analyzed by FACS using four different detection reagents: biotinylated-Lens culimaris agglutinin-A (LCA), anti-Lewis' antibody (anti-SSEA1), an anti-Lewis^y antibody (cBR96), and a Recombinant Human P-Selectin/CD62P/Fc Fusion protein. The procedure involved washing of the cells with FACS buffer (PBS+10% bovine serum albumin+0.02% sodium azide) 3 times followed by incubation with the primary detection reagent for 1 hr at 4° C., followed by 3 washes with FACS buffer and then incubation with the secondary detection reagent for 1 hr at 4° C. The cells were finally washed with FACS buffer 3 times and resuspended in FACS buffer and examined using a BD FACScan instrument. […] The P-selectin fusion protein detects P-selectin ligand present on the surface of cells, an interaction which involves the sialyl Lewis' epitope present of the P-selectin ligand.

Structure (SMILES)	PLRP/MS (inhibition or incorporation) [1]	tumor growth [2]	effect on E-selectin binding to neutrophils ([3]; 1 mM)	effect on E-selectin binding to neutrophils ([3]; 10 mM and 100 mM)	E-selectin binding to neutrophils ([3]; oral in drinking water, dose-dependent)	signal for P-selectin ligand (increase upon treatment) [4]
C#CC(OC(C)=O)[C@@H](OC(C)=O)[C@@H](OC(C)=O)[C@@H](C=O)OC(C)=O (stereo partly drawn) [SGD-1890, 5-ethynylarabinose tetraacetate]	complete inhibition; also recorded: Full inhibitor					
C[C@H](O)[C@@H](O)[C@@H](O)[C@H](F)C=O [SGD-2083, 2-fluoro-2-deoxy fucose]		tumor growth inhibition in vivo was seen	little effect	increasing effects	decreased	not observed
